Assay results reported in patent US8076487B2, “Pyridone derivative and herbicide” (Kumiai Chemical Industry Co., Ltd., priority 2006, dated 2011).

Assays:
Assay type in all cases: in vivo
[1] = test system: Japanese bulrush (Scirpus juncoides Roxb.); test: Test Example 1: herbicidal effect by soil application to paddy field; details: paddy field soil application; active ingredient 1,000 g per 1 hectare; wettable powder added dropwise to water surface the day after sowing; examined on the 21st day after application
Method in brief: (§1)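 Plants were sown in flooded (3 cm) paddy soil and evaluated for herbicidal effect 21 days after soil application in a greenhouse.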

[2] = test system: early watergrass (Echinochloa oryzicola Vasing); test: as above; details: paddy field soil application; active ingredient 1,000 g per 1 hectare; wettable powder added dropwise to water surface the day after sowing; examined on the 21st day after application
Method in brief: as §1

[3] = test system: heartshape false pickerelweed (Monochoria vaginalis (Burm.f.) C.Presl); test: as above; details: paddy field soil application; active ingredient 1,000 g per 1 hectare; wettable powder added dropwise to water surface the day after sowing; examined on the 21st day after application
Method in brief: as §1

[4] = test system: barnyardgrass (Echinochloa crus-galli (L.) P. Beauv. var. crus-galli); test: Test Example 2: herbicidal effect by soil application to upland field; details: soil surface spray, upland field soil, 1,000 g active ingredient per hectare, 21st day after application
Method in brief: (§2)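 After sowing and covering, the soil received an even aqueous spray of wettable powder at a rate of 1,000 g active ingredient/ha (1,000 L/ha). Ratings of herbicidal effect followed a standard scale 21 days post-treatment, with plants held in a greenhouse.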

[5] = test system: green foxtail (Setaria viridis (L.) P. Beauv.); test: as above; details: soil surface spray, upland field soil, 1,000 g active ingredient per hectare, 21st day after application
Method in brief: as §2

[6] = test system: slender amaranth (Amaranthus viridis L.); test: as above; details: soil surface spray, upland field soil, 1,000 g active ingredient per hectare, 21st day after application
Method in brief: as §2

[7] = test system: velvetleaf (Abutilon theophrasti medicus); test: as above; details: soil surface spray, upland field soil, 1,000 g active ingredient per hectare, 21st day after application
Method in brief: as §2

[8] = test system: barnyardgrass (Echinochloa crus-galli (L.) P. Beauv. var. crus-galli); test: Test Example 3: herbicidal effect by application to upland field (foliage treatment); details: foliage treatment, 1,000 g active ingredient per 1 hectare, 14th day after application, greenhouse
Method in brief: (§3)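 Sow in field soil; grow 2 weeks in greenhouse; spray foliage from above with wettable-powder dilution (1,000 g AI/ha, 1,000 L/ha); return to greenhouse; score effect at day 14 against a standard.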

[9] = test system: green foxtail (Setaria viridis (L.) P. Beauv.); test: as above; details: foliage treatment, 1,000 g active ingredient per 1 hectare, 14th day after application, greenhouse
Method in brief: as §3

[10] = test system: slender amaranth (Amaranthus viridis L.); test: as above; details: foliage treatment, 1,000 g active ingredient per 1 hectare, 14th day after application, greenhouse
Method in brief: as §3

[11] = test system: velvetleaf (Abutilon theophrasti medicus); test: as above; details: foliage treatment, 1,000 g active ingredient per 1 hectare, 14th day after application, greenhouse
Method in brief: as §3

SMILES | herbicidal effect, Scirpus juncoides Roxb. [1] | herbicidal effect, Echinochloa oryzicola Vasing [2] | herbicidal effect, Monochoria vaginalis (Burm. f.) C. Presl [3] | herbicidal effect (index), Barnyardgrass [4] | herbicidal effect (index), Green Foxtail [5] | herbicidal effect (index), Slender Amaranth [6] | herbicidal effect (index), Velvetleaf [7] | herbicidal effect, Barnyardgrass [8] | herbicidal effect, Green Foxtail [9] | herbicidal effect, Slender Amaranth [10] | herbicidal effect, Velvetleaf [11]
Cc1cc(-n2c(C(F)(F)F)ccc(C(=O)C3=C(O)CCCC3=O)c2=O)no1 [I-142] | 5 (90% or more of herbicidal effect and crop phytotoxicity) | 5 (90% or more of herbicidal effect and crop phytotoxicity) | 5 (90% or more of herbicidal effect and crop phytotoxicity) | 5 (90% or more of herbicidal effect and crop phytotoxicity) | 5 (90% or more of herbicidal effect and crop phytotoxicity) | 5 (90% or more of herbicidal effect and crop phytotoxicity) | 5 (90% or more of herbicidal effect and crop phytotoxicity) | 5 (90% or more of herbicidal effect and crop phytotoxicity) | 5 (90% or more of herbicidal effect and crop phytotoxicity) | 5 (90% or more of herbicidal effect and crop phytotoxicity) | 5 (90% or more of herbicidal effect and crop phytotoxicity)
O=C1CCCC(O)=C1C(=O)c1ccc(C(F)(F)F)n(NCC2CC2)c1=O [I-164] | 5 (90% or more of herbicidal effect and crop phytotoxicity) | 5 (90% or more of herbicidal effect and crop phytotoxicity) | 5 (90% or more of herbicidal effect and crop phytotoxicity) | 5 (90% or more of herbicidal effect and crop phytotoxicity) | 5 (90% or more of herbicidal effect and crop phytotoxicity) | 5 (90% or more of herbicidal effect and crop phytotoxicity) | 5 (90% or more of herbicidal effect and crop phytotoxicity) | 5 (90% or more of herbicidal effect and crop phytotoxicity) | 5 (90% or more of herbicidal effect and crop phytotoxicity) | 5 (90% or more of herbicidal effect and crop phytotoxicity) | 5 (90% or more of herbicidal effect and crop phytotoxicity)
CCOCCn1c(C(F)(F)F)ccc(C(=O)C2=C(O)C3CCC(C3)C2=O)c1=O (stereo not drawn) [III-20] | 5 (90% or more of herbicidal effect and crop phytotoxicity) | 5 (90% or more of herbicidal effect and crop phytotoxicity) | 5 (90% or more of herbicidal effect and crop phytotoxicity) | 5 (90% or more of herbicidal effect and crop phytotoxicity) | 5 (90% or more of herbicidal effect and crop phytotoxicity) | 5 (90% or more of herbicidal effect and crop phytotoxicity) | 5 (90% or more of herbicidal effect and crop phytotoxicity) | 5 (90% or more of herbicidal effect and crop phytotoxicity) | 5 (90% or more of herbicidal effect and crop phytotoxicity) | 5 (90% or more of herbicidal effect and crop phytotoxicity) | 5 (90% or more of herbicidal effect and crop phytotoxicity)
